Experimental data as given in PMC8205226, “HIV-1 Integrase Inhibitors with Modifications That Affect Their Potencies against Drug Resistant Integrase Mutants” (ACS Infectious Diseases, 2021).

Experiments:
[1] = system: HIV-1 IN mutant Y143H; experiment: single-round infectivity assay, Y143H IN mutant; assay type: cell-based
Description: (§1) Figure 4 Mutations in the β5-α3 loop affect the antiviral potencies of the new compounds. The EC50 values were determined using a vector that carries the IN mutant in a single round infection assay. […] Error bars represent the standard deviations of independent experiments, n = 4, performed in triplicate.
(§2) WT and mutant HIV-1 viral vectors were used in single-round infectivity assays to determine the antiviral potencies (EC50 values) of the compounds and the effects of the mutants on the EC50 values as previously described.[30],[54] Single round infectivity measurements were determined as done previously.[38]
(§3) The vector pNLNgoMIVR-ΔENV.LUC has been described previously.[26] To produce the new IN mutants used in this study, the IN open reading frame was removed from pNLNgoMIVR-ΔENV.LUC by digestion with KpnI and SalI, and the resulting fragment was inserted between the KpnI and SalI sites of pBluescript KS+. Using that construct as the wild-type template, we prepared the following HIV-1 IN mutants using the QuikChange II XL site directed mutagenesis kit (Agilent Technologies, Santa Clara, CA) protocol: N117A, N117H, P142A, P142H, P142S, Y143C, Y143H, S230R, R231G, and R231K. The following sense oligonucleotides were used with matching cognate antisense oligonucleotides (not shown) (Integrated DNA Technologies, Coralville, IA) in the mutagenesis: N117A, 5′-[…]-3′; N117H, 5′-[…]-3′; P142A, 5′-[…]-3′; P142H, 5′-[…]-3′; P142S, 5′-[…]-3′; Y143C, 5′- […]-3′; Y143H, 5′-[…]-3′; S230R, 5′- […]-3′; R231G, 5′-[…]-3′; R231K, 5′-[…]-3′.

[2] = system: HIV-1 IN mutant P142H; experiment: single-round infectivity assay, P142H IN mutant; assay type: cell-based
Description: (§4) The EC50 values were determined using a vector that carries the IN mutant in a single round infection assay. […] Error bars represent the standard deviations of independent experiments, n = 4, performed in triplicate.
Single round infectivity measurements were determined as done previously.[38]
as §3

[3] = system: HIV-1 IN mutant S119R; experiment: single-round infectivity assay, S119R IN mutant; assay type: cell-based
Description: as §4, §2, §3

[4] = system: HIV-1 IN double mutant G140S/Q148H; details: single round infection; previously reported; cited from earlier work
[5] = system: HIV-1 IN mutant N155H; details: single round infection; previously reported; cited from earlier work
[6] = system: WT HIV-1; details: vector carrying WT HIV-1 IN, single round infection; previously reported; cited from earlier work
[7] = system: HIV-1 IN mutant N117A; experiment: single-round infectivity assay, N117A IN mutant; assay type: cell-based
Description: as §4, §2, §3

[8] = system: HIV-1 IN mutant Y143R; experiment: single-round infectivity assay, Y143R IN mutant; assay type: cell-based
Description: (§5) Figure 2 Antiviral activities of the new compounds against RAL-resistant mutants. The EC50 values were determined using a vector that carries WT HIV-1 IN and the RAL-resistant mutants in a single round infection assay. […] Error bars represent the standard deviations of independent experiments, n = 4, performed in triplicate. The graph has a maximum value of 550 nM.
as §2, §3

[9] = system: HIV-1 IN mutant P142A; experiment: single-round infectivity assay, P142A IN mutant; assay type: cell-based
Description: as §1, §2, §3

[10] = system: HIV-1 IN mutant R231G; experiment: single-round infectivity assay, R231G IN mutant; assay type: cell-based
Description: as §4, with “Figure 5 Antiviral potencies of the new compounds against IN with mutations in the […]. The” for “The”
as §2, §3

[11] = system: HIV-1 IN double mutant G140S/Q148H; experiment: single-round infectivity assay, G140S/Q148H IN double mutant; assay type: cell-based
Description: as §5, §2, §3

[12] = system: HIV-1 IN mutant N155H; experiment: single-round infectivity assay, N155H IN mutant; assay type: cell-based
Description: as §5, §2, §3

[13] = system: HIV-1 IN mutant R231K; experiment: single-round infectivity assay, R231K IN mutant; assay type: cell-based
Description: as §4, with “Figure 5 Antiviral potencies of the new compounds against IN with mutations in the […]. The” for “The”
as §2, §3

[14] = system: HIV-1 IN mutant G118R; experiment: single-round infectivity assay, G118R IN mutant; assay type: cell-based
Description: as §4, §2, §3

[15] = system: HIV-1 IN mutant S230R; experiment: single-round infectivity assay, S230R IN mutant; assay type: cell-based
Description: as §4, with “Figure 5 Antiviral potencies of the new compounds against IN with mutations in the […]. The” for “The”
as §2, §3

[16] = system: HIV-1 IN mutant N117H; experiment: single-round infectivity assay, N117H IN mutant; assay type: cell-based
Description: as §4, §2, §3

[17] = system: HIV-1 IN mutant P142S; experiment: single-round infectivity assay, P142S IN mutant; assay type: cell-based
Description: as §1, §2, §3

[18] = system: HIV-1 IN mutant Y143R; details: single round infection; previously reported; cited from earlier work
[19] = system: HIV-1 IN mutant Y143C; experiment: single-round infectivity assay, Y143C IN mutant; assay type: cell-based
Description: as §1, §2, §3

[20] = fold change in EC50, IN mutant versus WT HIV-1

## COC(=O)CNc1c(C(=O)NCc2ccc(F)cc2F)c(=O)n(O)c2ncccc12 [5′g]
[1]; EC50 compound / EC50 DTG
  ratio of the EC50s (our compound relative to DTG) against Y143H: 3.6
[1]; Human immunodeficiency virus 1, read-out: EC50 values Y143H, single round infection, n = 4
  EC50: 7.9 ± 1 nM
[1]; [20]
  FC Y143H: 2.1
[2]; EC50 compound / EC50 DTG
  ratio of the EC50s (our compound relative to DTG) against P142H: 4.6
[2]; Human immunodeficiency virus 1, read-out: EC50 values P142H
  EC50: 12.8 ± 2.9 nM
[2]; [20]
  FC P142H: 3.4
[3]; EC50 compound / EC50 DTG
  ratio of the EC50s (our compound relative to DTG) against S119R: 9.7
[3]; Human immunodeficiency virus 1, read-out: EC50 values S119R
  EC50: 22.3 ± 1.7 nM
[3]; [20]
  FC S119R: 5.9
[4]
  EC50: 35.5 ± 15.9 nM
[5]
  EC50: 19 ± 6.9 nM
[6]
  EC50: 3.8 ± 1.2 nM
[7]; EC50 compound / EC50 DTG
  ratio of the EC50s (our compound relative to DTG) against N117A: 2.4
[7]; Human immunodeficiency virus 1, read-out: EC50 values N117A
  EC50: 1.2 ± 0.2 nM
[7]; [20]
  FC N117A: 0.3
[8]; EC50 compound / EC50 DTG
  ratio of the EC50s (our compound relative to DTG) against Y143R: 1.1
[8]; [20]
  FC Y143R: 1.2
[9]; EC50 compound / EC50 DTG
  ratio of the EC50s (our compound relative to DTG) against P142A: 5.6
[9]; Human immunodeficiency virus 1, read-out: EC50 values P142A
  EC50: 14.1 ± 0.3 nM
[9]; [20]
  FC P142A: 3.7
[10]; EC50 compound / EC50 DTG
  ratio of the EC50s (our compound relative to DTG) against R231G: 6.9
[10]; Human immunodeficiency virus 1, read-out: EC50 values R231G
  EC50: 9.7 ± 2.4 nM
[10]; [20]
  FC R231G: 2.6
[11]; EC50 compound / EC50 DTG
  ratio of the EC50s (our compound relative to DTG) against G140S/Q148H: 6.1
[11]; [20]
  FC G140S/Q148H: 9.3
[12]; EC50 compound / EC50 DTG
  ratio of the EC50s (our compound relative to DTG) against N155H: 5.3
[12]; [20]
  FC N155H: 5.0
[13]; EC50 compound / EC50 DTG
  ratio of the EC50s (our compound relative to DTG) against R231K: 2.2
[13]; Human immunodeficiency virus 1, read-out: EC50 values R231K, single round infection, n = 4
  EC50: 9.2 ± 2.1 nM
[13]; [20]
  FC R231K: 2.4
[14]; EC50 compound / EC50 DTG
  ratio of the EC50s (our compound relative to DTG) against G118R: 13.1
[14]; Human immunodeficiency virus 1, read-out: EC50 values G118R
  EC50: 171 ± 3.2 nM
[15]; EC50 compound / EC50 DTG
  ratio of the EC50s (our compound relative to DTG) against S230R: 1.0
[15]; Human immunodeficiency virus 1, read-out: EC50 values S230R
  EC50: 4.5 ± 1.5 nM
[15]; [20]
  FC S230R: 1.2
[16]; EC50 compound / EC50 DTG
  ratio of the EC50s (our compound relative to DTG) against N117H: 2.3
[16]; Human immunodeficiency virus 1, read-out: EC50 values N117H
  EC50: 5.6 ± 0.9 nM
[16]; [20]
  FC N117H: 1.5
[17]; EC50 compound / EC50 DTG
  ratio of the EC50s (our compound relative to DTG) against P142S: 12.4
[17]; Human immunodeficiency virus 1, read-out: EC50 values P142S
  EC50: 27.2 ± 4.4 nM
[17]; [20]
  FC P142S: 7.2
[18]
  EC50: 4.6 ± 2.2 nM
[19]; EC50 compound / EC50 DTG
  ratio of the EC50s (our compound relative to DTG) against Y143C: 28.1
[19]; Human immunodeficiency virus 1, read-out: EC50 values Y143C, single round infection, n = 4
  EC50: 39.3 ± 7.3 nM
[19]; [20]
  FC Y143C: 10.3
